What was measured:
[1] = tested on: osteoblast differentiation of mouse bone marrow cells; assay: Differentiation of osteoblast: ALP-positive osteoblast nodules in mouse bone marrow cell culture; type: cell-based; settings: final concentration of 5 μM and 10 μM; p<0.05 or p<0.01; FIG. 1
Description: Mouse bone marrow cells were seeded in each well of a microplate containing 0.5 mL Eagle minimum essential medium a modified type (α-MEM) (manufactured by MP Biomedicals INC.) at 2.5×10^6 cells/well, and cultured at 37° C., carbon dioxide concentration=5(v/v)%. […] On days 1 and 4 of culture, a differentiation induction reagent (0.2 mM ascorbic acid, 2.5 mM β-glycerophosphoric acid, 10 nM dexamethasone) was added to the following final concentrations. At 6 days from the culture, the cells were stained with alkaline phosphatase (ALP), observed with a microscope (inverted culture microscope “CK40”, manufactured by Olympus Corporation, magnification=40×), and the osteoblast nodule stained with ALP, i.e., cell nodule formed by differentiated osteoblast, was detected.

[2] = tested on: osteoclast differentiation of mouse bone marrow cells; assay: Differentiation of osteoclast: TRAP-positive osteoclasts in mouse bone marrow cell culture; type: cell-based; settings: FIG. 2
Description: Mouse bone marrow cells were seeded in each well of a microplate containing 0.5 mL α-MEM (manufactured by MP Biomedicals INC.) at 3.5×10^6 cells/well, and cultured at 37° C., carbon dioxide concentration=5(v/v)%. […] On days 1 and 4 of culture, a differentiation induction reagent (calcitriol) was added to a final concentration of 10 nM. At 6 days from the culture, the cells were stained with tartaric acid resistance acidic phosphatase (TRAP), observed with a microscope (inverted culture microscope “CK40”, manufactured by Olympus Corporation, magnification=40×), and the cells stained with TRAP, i.e., differentiated osteoclasts, were detected.

O=C1CC(c2ccc(O)c(O)c2)Oc2cc(OC3OC(CO)C(O)C(O)C3O)ccc21 [F2, 3′,4′,7-trihydroxyflavanone 7-O-β-D-glucopyranoside]
number of ALP-positive osteoblast nodules versus control [1]: significant difference from the control
final concentration at which a concentration-dependent differentiation accelerating action on osteoclast was exhibited ([2]; TRAP-positive osteoclast number per well, 6 days of culture): ≥ 2.5 µM
TRAP-positive osteoclast number versus control ([2]; final concentration of 5 μM and 10 μM): significant difference of p<0.05
